Assay results reported in US20230241167A1, “Use of Caveolin-1 Scaffolding Domain Peptides for Treating Disease and Disorders” (MUSC Foundation for Research Development, priority 2020, published 2023).
Each block holds one compound with its values, some of them ahead of it. Square brackets hold non-standard residues; d marks the D form. Ends that are not written are not given here. Peptide text beside a SMILES is read from it.

What was measured:
[1] = Plasma level of fluoresceinated W82-89 after i.p. or i.n. delivery; set-up: species or system mice; settings: mouse, in vivo
Method: administration of the water soluble CSD peptides is a promising route of delivery. Two mice received a single i.p. injection of 0.8 μmol/kg fluoresceinated W82-89 in 100 μl PBS. Two mice received fluoresceinated W82-89 i.n. (4 μmol/kg in 30 μl PBS (15 μl per nostril)). Using calibrated capillary tubes, 50 μl of blood was collected from the maxillary vein from one mouse from each pair at 3 min, 30 min, 2 h, and 6 h; and from the other mouse from each pair at 10 min, 1 h, 4 h, and 8 h. Blood was immediately diluted with 200 μl PBS/10 mM EDTA, and centrifuged to harvest plasma. The level of W82-89 in the plasma was determined using a fluorescent plate reader.

[2] = in vivo, ip
Method: Following a single i.p. dose of the indicated fluorescent peptides, blood was collected from the maxillary vein at intervals and the levels of the peptides in plasma derived from the blood was determined using a fluorescent plate reader.

Ang II-infused mice = experiment: Angiotensin II-induced congestive heart failure (CHF) model; format: in vivo; settings: for suppression of the effects of AngII on Heart Weight/Body Weight (HW/BW) ratio: young mice (3 months) infused with Ang II two weeks
Method: FIG. 1 provides an overview of an experiment using Full-Length CSD, 82-89, 88-95, and 94-101 (SEQ ID NO:1, SEQ ID NO:2, SEQ ID NO:3, and SEQ ID NO:4 respectively).
Young mice (3 months old) infused with Ang II or vehicle for two weeks received daily i.p. injections of CSD, the indicated subdomains or scrambled CSD (0.8 μmol/kg). Mice were evaluated by Echocardiography for changes in posterior wall thickness (pWTh), fractional shortening (FS), cardiac output (CO), ejection fraction (EF), and isovolumic relaxation time (IVRT). Significant changes are shown as ***p<0.001 for Sham+Veh vs AngII+Veh. Significant suppression of AngII-induced changes is shown as ^p<0.05, ^^p<0.01, and ^^^p<0.001 for AngII+Veh vs AngII+CSD or AngII+CSD subdomains. The number of mice used in each treatment are shown in the HW/BW data.
Young mice (3 months old) infused with Ang II or vehicle for two weeks received daily i.p. injections of the indicated subdomains of CSD. The results of a typical experiment for Col I and HSP47 (FIG. 4) and for microvascular leakage (FIG. 5) are shown in Western blots (2 to 3 mice per group). The data are quantified below (n=4). Significant changes are shown as *p<0.05 and **p<0.01 for Sham+Veh vs Ang II+Veh. Significant suppression of Ang II-induced changes by subdomains are shown as ^p<0.05, […], and ^^^p<0.001 for Ang II+Veh vs Ang II+CSD subdomains.
Young mice (3 months old) infused with Ang II or vehicle for two weeks received daily i.p. injections of W82-89. IgG heavy chain (IgGH) leakage and Col I accumulation are shown in Western blots. The actin loading control is present twice because IgGH was analyzed in the supernatant fraction of heart homogenate while Col I is found in the pellet fraction. In the quantitation (n=4), significant changes are shown as **p<0.01 and ***p<0.001 for Sham+Veh vs Ang II+Veh and ^^p<0.01 and ^^^p<0.001 for reversal of AngII-induced changes by W82-89.

[3] = tested on: aged C57/Bl6 mice (18 months); experiment: Aging-associated pathological changes in heart and kidney of aged mice; format: in vivo
Method: The function of various organs in the elderly goes downhill progressively. This is in part due to increases in fibrosis and microvascular leakage. The experiments presented in this Example have examined these progressive processes in mice.
Young C57/Bl6 mice (3 months), middle-aged C57/Bl6 mice (9 months), and aged C57/Bl6 mice (18 months) were injected daily i.p. for six weeks with saline vehicle or CSD. IgG heavy chain leakage and Col I accumulation were evaluated by Western blots of heart (FIG. 10) and kidney tissue (FIG. 11). Actin was the loading control. Two to three mice per category are shown. In the quantifications (n=4), significant changes are shown as ***p<0.001 between young and aged mice and ^^^p<0.001 for decreases in aged mice treated with CSD. In FIG. 12, representative examples of picrosirius red staining of heart and kidney tissue sections from the indicated mice are shown. The data were quantified (n=3) as in terms of Collagen Volume Fraction. Significant changes are shown as ***p<0.001 and **p<0.01 between young and aged mice and ^p<0.05 for decreases in aged mice treated with CSD.
The same extracts used in FIG. 10 and FIG. 11 were analyzed by Western Blot for tyrosine kinase activation using antibodies specific for phosphorylated tyrosine residues in PDGFR (α-Y849/β-Y857), c-Src Y426, and Pyk2 Y402. Actin was the loading control. In the quantifications, significant changes are shown as ***p<0.001 and **p<0.01 between young and aged mice and ^^^p<0.001 and ^^p<0.01 for decreases in Aged mice treated with CSD.
Echocardiographic analyses were performed on the same mice used in FIG. 10 and FIG. 11 prior to their sacrifice. M-mode echo measurements in parasternal short-axis (PSAX) view were used to quantify changes in EF and FS. Tissue Doppler measurements in PSAX were used to measure IVRT. Values are shown as Mean±SEM. Statistically significant changes are shown as ***p<0.001 between young and aged mice and ^p<0.05 for improved functions in aged mice due to CSD treatment (FIG. 14).
Left ventricle tissue sections from the same mice used in FIG. 10 were stained with hematoxylin-eosin and cardiomyocyte cross-sectional area was quantified by measuring at least 50 cardiomyocytes for each group (n=3) using SigmaScan Pro image analysis. Statistical significance is shown as ***p<0.001 between young and aged mice and ^p<0.05 for decreased hypertrophy in aged mice due to CSD treatment (FIG. 15).

[4] = tested on: aged mice (18-month old), brain tissue; experiment: Aging-associated pathological changes in the brain of aged mice; format: in vivo; settings: 18-month old mice; CSD injections for four weeks; Western blot
Method: FIG. 16 provides an overview of an experiment using CSD (SEQ ID NO: 1). It is similar to the experiment described in FIG. 9 except that the readouts were performed on brain tissue rather than heart and kidney tissue.
Mice were treated as described in FIG. 10, except that CSD injections were for four weeks. Brain tissue extracts were analyzed by Western blot for microvascular leakage and fibrosis (FIG. 17) and for tyrosine kinase activation (FIG. 18). In the quantifications (n=3), significant changes are shown as ***p<0.001 and **p<0.01 between young and aged mice and ^^^p<0.001 and ^^p<0.01 for decreases in aged mice due to CSD treatment.

[5] = tested on: fibrosis in lung, skin, and heart; settings: literature; cited from earlier work
bleomycin-treated mice = experiment: Bleomycin-induced lung and skin fibrosis, treatments delivered by pump; format: in vivo
Method: Experiments were conducted to examine the effect of unmodified CSD subdomains on lung and skin fibrosis. […] Pumps containing bleomycin or saline vehicle were implanted subcutaneously into mice. After one week, the pumps had emptied and were replaced with pumps designed to empty over two weeks containing the indicated treatments (n=6 per group). After these two weeks, the mice were sacrificed.
Skin in the vicinity of the pump outlet was harvested for measurement of the thickness of the dermis and the intradermal fat. ^^^p<0.001 for Saline/Vehicle vs Bleo/Vehicle. ***p<0.001, **p<0.01, *p<0.05 for Bleo/Vehicle vs Bleo/Peptide Treatments.

[6] = tested on: Bone marrow (BM) monocytes; experiment: Migration of bone marrow monocytes from bleomycin-treated mice treated in vivo; settings: mice treated in vivo prior to harvesting the monocytes
From the text: Recruitment of activated monocytes into damaged lung tissue contributes to the progression of fibrosis and is suppressed in vivo by CSD (FIG. 22). Bone marrow (BM) monocytes were isolated from control and bleomycin-treated mice.

[7] = tested on: aged C57/Bl6 mice (18 months); experiment: Aging-associated pathological changes in heart and kidney of aged mice; format: in vivo; settings: echocardiography
[8] = 18-month old mice, daily i.p. six weeks, Western blot
[9] = aged mice, Western blot for phosphorylated tyrosine residues
[10] = skin in the vicinity of the pump outlet

- Area Under the Curve for i.n. delivery relative to i.p. dose [1]: > 1.5 fold
Compound: CC[C@H](C)[C@H](NC(=O)CNC(=O)[C@H](CC(=O)O)NC(=O)[C@@H](CCCCN)NC(=O)[C@@H](CCCCN)NC(C)=O)C(=O)N[C@@H](Cc1c[nH]c2ccccc12)C(=O)N[C@@H](CCCCN)C(=O)N[C@@H](C)C(=O)N[C@@H](CO)C(=O)N[C@@H](Cc1ccccc1)C(=O)N[C@H](CCCCN)C(=O)N[C@H](CCCCN)C(N)=O [W82-89] (Ac-[dK][dK]DGIWKASF[dK][dK]-NH2)
- uptake into plasma following i.p. administration [2]: much greater than the uptake of CSD or WCSD
- suppression of AngII-induced fibrosis (Col I levels) in the heart (Ang II-infused mice; W82-89 experiment (FIG. 6, 7), daily i.p. injections): suppressed by W82-89 with high significance
- suppression of AngII-induced microvascular leakage in the heart (IgG heavy chain level in the tissue) (Ang II-infused mice; Western blot, daily i.p. injections): suppressed by W82-89 with high significance
- overall effectiveness of domains in the CHF model (summary of FIGS. 1-7) (Ang II-infused mice; summary, FIG. 8): more effective than 82-89 and at least as effective as 88-95
- suppression of the effects of AngII on Heart Weight/Body Weight (HW/BW) ratio (Ang II-infused mice; daily i.p. injections): suppressed by W82-89 with high significance

Compound: caveolin-1 scaffolding domain peptide (DGIWKASFTTFTVTKYWFYR-NH2) [CSD, amino acids 82-101 of caveolin-1]
- level of fibrosis (Col I accumulation) in the heart [3, 8]: reverses the levels of fibrosis and microvascular leakage almost to the level observed in 3-month old mice
- level of fibrosis (Col I accumulation) in the kidney [3, 8]: reverses the levels of fibrosis and microvascular leakage almost to the level observed in 3-month old mice
- level of microvascular leakage (IgG heavy chain) in the heart [3, 8]: reverses the levels of fibrosis and microvascular leakage almost to the level observed in 3-month old mice
- level of microvascular leakage (IgG heavy chain) in the kidney [3, 8]: reverses the levels of fibrosis and microvascular leakage almost to the level observed in 3-month old mice
- picrosirius red staining (collagen volume fraction), heart ([3]; aged mice, heart tissue sections): significantly reduced
- picrosirius red staining (collagen volume fraction), kidney ([3]; aged mice, kidney tissue sections): significantly reduced
- aging-associated activation of tyrosine kinases PDGFR, c-Src and Pyk2, heart [3, 9]: almost completely reversed
- aging-associated activation of tyrosine kinases PDGFR, c-Src and Pyk2, kidney [3, 9]: almost completely reversed
- IVRT (prolonged ventricular relaxation time caused by aging) ([3]; aged mice, echocardiography): resolved by CSD treatment
- cardiomyocyte hypertrophy (cross-sectional area) ([3]; aged mice, left ventricle sections): reversed
- level of activated tyrosine kinases in the brain [4]: decreases these levels almost to the levels observed in healthy 3-month old mice
- level of fibrosis in the brain [4]: decreases these levels almost to the levels observed in healthy 3-month old mice
- level of microvascular leakage in the brain [4]: decreases these levels almost to the levels observed in healthy 3-month old mice
- inhibition of fibrosis in vivo [5]: inhibits fibrosis in vivo in lung, skin, and heart
- suppression of the effects of AngII on Heart Weight/Body Weight (HW/BW) ratio (Ang II-infused mice; daily i.p. injections): suppress
- suppression of the effects of AngII on Ejection Fraction (EF), Fractional Shortening (FS), Isovolumic Relaxation Time (IVRT) (Ang II-infused mice; young mice infused with Ang II two weeks, daily i.p. injections, echocardiography): suppress
- dermal fibrosis (thickness of the dermis) (bleomycin-treated mice; [10]): suppression
- loss of intradermal fat (bleomycin-treated mice; [10]): suppression
- bleomycin-induced lung fibrosis (Ashcroft score) (bleomycin-treated mice; treatment by pump over two weeks after one week bleomycin, n=6): suppression
- enhanced migration of BM monocytes from bleomycin-treated mice [6]: suppression
- FS and SV (ventricular function) [7]: positive effect
